Measured values from US20030133918A1, “Methods for ex vivo propagation of somatic stem cells” (priority 2001, published 2003).

Legend:
Xs-D8 cells = experiment: Daughter pair analysis (DPA), BrdU incorporation; type: cell-based, rat; conditions: addition of Xs; n=58 pairs; 16% in absence of Xs
Description: The assay is called a “daughter pair analysis” (DPA). To perform the DPA, cells are plated in Xs-containing medium at microcolony density (approximately one cell per 40× microscope field). After allowing 4 to 5 hours for cell adherence, asymmetric cell kinetics are induced by changing to Xs-free medium. After about 16 hours to allow cell divisions to produce “daughter pairs”, the cells are labeled for 4 hours with the thymidine analogue bromodeoxyuridine (BrdU). The cells are then fixed and evaluated for BrdU incorporation by in situ immunofluorescence.
When grown in the absence of Xs, 84% of Xs-D8 BrdU(+) daughter pairs show a single BrdU(+) daughter (n=76 pairs; e.g., FIGS. 3C,F). The BrdU(+) daughter is the cycling stem cell daughter, whereas the BrdU(−) daughter corresponds to a non-cycling transit cell daughter that can undergo differentiation in peptide hydrogels (data not shown). Consistent with its ability to shift cells from asymmetric to exponential kinetics, addition of Xs increases the fraction of double-BrdU(+) Xs-D8 daughter pairs from 16% to 76% (n=58 pairs; e.g., FIGS. 3B,E). […] For 70 scored daughter pairs in Xs-free medium, the frequency of Xs-F1 symmetric pairs was 5 times the frequency of Xs-D8 symmetric pairs.

[1] = test system: rat liver epithelial cell strains; experiment: Colony formation assay of rat liver epithelial cell strains in Xs-free or Xs-containing medium; type: cell-based; conditions: for Colony formation efficiency Xs+/Xs− Ratio: 50 μM xanthosine vs Xs-free medium; for Colony formation efficiency, Xs+ (Mean % ± SD; n = 6): 50 μM xanthosine, 14 days, 200 cells per well
Text: Three Xs-free (“Xs-F”) cell strains and 8 Xs-derived (“Xs-D”) cell strains were chosen for cell kinetics analysis. Despite the similarities in their derivation course, there is a remarkable difference in the growth properties of Xs-F and Xs-D cell strains (see Table 1). […] This is a highly significance difference (p=0.004). […] The estimated mean increase in colony formation efficiency for Xs-D strains in Xs-containing medium is 11-fold, ranging from a 10% (Xs-D9; not statistically significant) to a 40-fold increase (Xs-D13; p<0.0001). The growth of Xs-F strains was unaffected by Xs even at the higher concentration of 100 μM (data not shown). [table]

Q: What does the source list for `O=c1[nH]c(=O)c2ncn([C@@H]3O[C@H](CO)[C@@H](O)[C@H]3O)c2[nH]1` [Xs, xanthosine]?
A: Fraction of double-BrdU(+) Xs-D8 daughter pairs (Xs-D8 cells): 76%; Growth of Xs-F strains ([1]; Xs-F strains, even at the higher concentration of 100 μM, data not shown): unaffected; Colony formation efficiency Xs+/Xs− Ratio ([1]; cell strain Xs-D4): 1.5; Colony formation efficiency, Xs+ (Mean % ± SD; n = 6) ([1]; cell strain Xs-D4): 8.0 ± 1.1%; Colony formation efficiency Xs+/Xs− Ratio ([1]; cell strain Xs-D6): 1.4; Colony formation efficiency, Xs+ (Mean % ± SD; n = 6) ([1]; cell strain Xs-D6): 5.3 ± 1.8%; Colony formation efficiency Xs+/Xs− Ratio ([1]; cell strain Xs-D7): ≧22; Colony formation efficiency, Xs+ (Mean % ± SD; n = 6) ([1]; cell strain Xs-D7): 6.7 ± 2.2%; Colony formation efficiency Xs+/Xs− Ratio ([1]; cell strain Xs-D8): 17; Colony formation efficiency, Xs+ (Mean % ± SD; n = 6) ([1]; cell strain Xs-D8): 22 ± 3.6%; Colony formation efficiency Xs+/Xs− Ratio ([1]; cell strain Xs-D9): 1.1; Colony formation efficiency, Xs+ (Mean % ± SD; n = 6) ([1]; cell strain Xs-D9): 11 ± 2.6%; Colony formation efficiency Xs+/Xs− Ratio ([1]; cell strain Xs-D13): 40; Colony formation efficiency, Xs+ (Mean % ± SD; n = 6) ([1]; cell strain Xs-D13): 12 ± 2.7%; Colony formation efficiency Xs+/Xs− Ratio ([1]; cell strain Xs-D14): 1.3; Colony formation efficiency, Xs+ (Mean % ± SD; n = 6) ([1]; cell strain Xs-D14): 0.4 ± 0.67%; Colony formation efficiency Xs+/Xs− Ratio ([1]; cell strain Xs-D15): 5.3; Colony formation efficiency, Xs+ (Mean % ± SD; n = 6) ([1]; cell strain Xs-D15): 10 ± 1.6%; Colony formation efficiency Xs+/Xs− Ratio ([1]; cell strain Xs-F1): 0.9; Colony formation efficiency, Xs+ (Mean % ± SD; n = 6) ([1]; cell strain Xs-F1): 9.8 ± 2.2%; Colony formation efficiency Xs+/Xs− Ratio ([1]; cell strain Xs-F2): 1.0; Colony formation efficiency, Xs+ (Mean % ± SD; n = 6) ([1]; cell strain Xs-F2): 29 ± 3.7%; Colony formation efficiency Xs+/Xs− Ratio ([1]; cell strain Xs-F3): 1.0; Colony formation efficiency, Xs+ (Mean % ± SD; n = 6) ([1]; cell strain Xs-F3): 18 ± 3.7%; Estimated mean increase in colony formation efficiency for Xs-D strains in Xs-containing medium ([1]; mean of 8 Xs-D strains, Xs-containing vs Xs-free medium): 11 fold; Increase in colony formation efficiency in Xs-containing medium ([1]; strain Xs-D9, not statistically significant): 10%; Increase in colony formation efficiency in Xs-containing medium ([1]; strain Xs-D13, p<0.0001): 40 fold
